PubChem BioAssay (NCI)
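Each compound was tested at five concentrations against cells in 96-well plates for 48 hours. TGI is the concentration that stops growth completely.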

Assays:
Experiment in all cases: growth of human tumour cells (NCI), 48 h
TK-10 renal = test system: TK-10 renal
DU-145 prostate = test system: DU-145 prostate
NCI-H226 lung = test system: NCI-H226 lung
NCI-H522 lung = test system: NCI-H522 lung
CCRF-CEM leukemia = test system: CCRF-CEM leukemia
SR leukemia = test system: SR leukemia
T-47D breast = test system: T-47D breast
SNB-19 CNS = test system: SNB-19 CNS
HOP-62 NSCLC = test system: HOP-62 NSCLC
CAKI-1 renal = test system: CAKI-1 renal
SK-OV-3 ovarian = test system: SK-OV-3 ovarian
SK-MEL-5 melanoma = test system: SK-MEL-5 melanoma
UACC-257 melanoma = test system: UACC-257 melanoma
M14 melanoma = test system: M14 melanoma
COLO 205 colon = test system: COLO 205 colon
OVCAR-8 ovarian = test system: OVCAR-8 ovarian
BT-549 breast = test system: BT-549 breast
SK-MEL-2 melanoma = test system: SK-MEL-2 melanoma
SF-268 CNS = test system: SF-268 CNS
A498 renal = test system: A498 renal
MOLT-4 leukemia = test system: MOLT-4 leukemia
HCT-15 colon = test system: HCT-15 colon
HS 578T breast = test system: HS 578T breast
K-562 leukemia = test system: K-562 leukemia
EKVX NSCLC = test system: EKVX NSCLC
SF-295 CNS = test system: SF-295 CNS
IGROV1 ovarian = test system: IGROV1 ovarian
SF-539 CNS = test system: SF-539 CNS
SN12C renal = test system: SN12C renal
MDA-MB-231 breast = test system: MDA-MB-231 breast
SNB-75 CNS = test system: SNB-75 CNS
U251 CNS = test system: U251 CNS
HT29 colon = test system: HT29 colon
OVCAR-3 ovarian = test system: OVCAR-3 ovarian
NCI-H23 lung = test system: NCI-H23 lung
RPMI-8226 leukemia = test system: RPMI-8226 leukemia
MALME-3M melanoma = test system: MALME-3M melanoma
UACC-62 melanoma = test system: UACC-62 melanoma
SK-MEL-28 melanoma = test system: SK-MEL-28 melanoma
HOP-92 NSCLC = test system: HOP-92 NSCLC
A549 NSCLC = test system: A549 NSCLC
MDA-MB-435 = test system: MDA-MB-435
KM12 colon = test system: KM12 colon
MDA-N = test system: MDA-N
OVCAR-5 ovarian = test system: OVCAR-5 ovarian
HCT-116 colon = test system: HCT-116 colon
ACHN renal = test system: ACHN renal
RXF 393 renal = test system: RXF 393 renal
PC-3 prostate = test system: PC-3 prostate
SW-620 colon = test system: SW-620 colon
MCF7 breast = test system: MCF7 breast
NCI/ADR-RES ovarian = test system: NCI/ADR-RES ovarian
OVCAR-4 ovarian = test system: OVCAR-4 ovarian
786-0 renal = test system: 786-0 renal
LOX IMVI melanoma = test system: LOX IMVI melanoma
NCI-H460 lung = test system: NCI-H460 lung
HCC-2998 colon = test system: HCC-2998 colon
HL-60(TB) leukemia = test system: HL-60(TB) leukemia
UO-31 renal = test system: UO-31 renal

## CS(=O)(=O)N(CC(=O)O)Cc1ccccc1
TK-10 renal
  TGI: > 100 µM
DU-145 prostate
  TGI: > 100 µM
NCI-H226 lung
  TGI: > 100 µM
NCI-H522 lung
  TGI: > 100 µM
CCRF-CEM leukemia
  TGI: > 100 µM
SR leukemia
  TGI: > 100 µM
T-47D breast
  TGI: > 100 µM
SNB-19 CNS
  TGI: > 100 µM
HOP-62 NSCLC
  TGI: > 100 µM
CAKI-1 renal
  TGI: > 100 µM
SK-OV-3 ovarian
  TGI: > 100 µM
SK-MEL-5 melanoma
  TGI: > 100 µM
UACC-257 melanoma
  TGI: > 100 µM
M14 melanoma
  TGI: > 100 µM
COLO 205 colon
  TGI: > 100 µM
OVCAR-8 ovarian
  TGI: > 100 µM
BT-549 breast
  TGI: > 100 µM
SK-MEL-2 melanoma
  TGI: > 100 µM
SF-268 CNS
  TGI: > 100 µM
A498 renal
  TGI: > 100 µM
MOLT-4 leukemia
  TGI: > 100 µM
HCT-15 colon
  TGI: > 100 µM
HS 578T breast
  TGI: > 100 µM
K-562 leukemia
  TGI: > 100 µM
EKVX NSCLC
  TGI: > 100 µM
SF-295 CNS
  TGI: > 100 µM
IGROV1 ovarian
  TGI: > 100 µM
SF-539 CNS
  TGI: > 100 µM
SN12C renal
  TGI: > 100 µM
MDA-MB-231 breast
  TGI: > 100 µM
SNB-75 CNS
  TGI: > 100 µM
U251 CNS
  TGI: > 100 µM
HT29 colon
  TGI: > 100 µM
OVCAR-3 ovarian
  TGI: > 100 µM
NCI-H23 lung
  TGI: > 100 µM
RPMI-8226 leukemia
  TGI: > 100 µM
MALME-3M melanoma
  TGI: > 100 µM
UACC-62 melanoma
  TGI: > 100 µM
SK-MEL-28 melanoma
  TGI: > 100 µM
HOP-92 NSCLC
  TGI: > 100 µM
A549 NSCLC
  TGI: > 100 µM
MDA-MB-435
  TGI: > 100 µM
KM12 colon
  TGI: > 100 µM
MDA-N
  TGI: > 100 µM
OVCAR-5 ovarian
  TGI: > 100 µM
HCT-116 colon
  TGI: > 100 µM
ACHN renal
  TGI: > 100 µM
RXF 393 renal
  TGI: > 100 µM
PC-3 prostate
  TGI: > 100 µM
SW-620 colon
  TGI: > 100 µM
MCF7 breast
  TGI: > 100 µM
NCI/ADR-RES ovarian
  TGI: > 100 µM
OVCAR-4 ovarian
  TGI: > 100 µM
786-0 renal
  TGI: > 100 µM
LOX IMVI melanoma
  TGI: > 100 µM
NCI-H460 lung
  TGI: > 100 µM

## CCCCCCCCCCCCCCC[C@@H](O)C[N+](C)(C)CCO
TK-10 renal
  TGI: 2.86 µM
DU-145 prostate
  TGI: 48.2 µM
NCI-H226 lung
  TGI: 14 µM
NCI-H522 lung
  TGI: 4.35 µM
CCRF-CEM leukemia
  TGI: 11.5 µM
SR leukemia
  TGI: > 23.6 µM
T-47D breast
  TGI: 55.6 µM
SNB-19 CNS
  TGI: 3.81 µM
HCC-2998 colon
  TGI: 4.81 µM
HOP-62 NSCLC
  TGI: > 100 µM
CAKI-1 renal
  TGI: 4.1 µM
SK-OV-3 ovarian
  TGI: 36 µM
SK-MEL-5 melanoma
  TGI: 7.07 µM
UACC-257 melanoma
  TGI: 49.2 µM
M14 melanoma
  TGI: 41.1 µM
COLO 205 colon
  TGI: 14.6 µM
OVCAR-8 ovarian
  TGI: 30 µM
BT-549 breast
  TGI: 3.63 µM
SK-MEL-2 melanoma
  TGI: 44.3 µM
SF-268 CNS
  TGI: 6.66 µM
HL-60(TB) leukemia
  TGI: 0.36 µM
A498 renal
  TGI: > 100 µM
MOLT-4 leukemia
  TGI: > 24.5 µM
HCT-15 colon
  TGI: 14 µM
HS 578T breast
  TGI: 7.53 µM
K-562 leukemia
  TGI: > 100 µM
EKVX NSCLC
  TGI: 37.4 µM
SF-295 CNS
  TGI: 10.1 µM
IGROV1 ovarian
  TGI: 2.11 µM
SF-539 CNS
  TGI: 21.8 µM
SN12C renal
  TGI: 50.8 µM
UO-31 renal
  TGI: 35.6 µM
MDA-MB-231 breast
  TGI: 7.85 µM
SNB-75 CNS
  TGI: 7.54 µM
U251 CNS
  TGI: 2.59 µM
HT29 colon
  TGI: 4.62 µM
OVCAR-3 ovarian
  TGI: > 93.6 µM
NCI-H23 lung
  TGI: 10.7 µM
RPMI-8226 leukemia
  TGI: > 100 µM
MALME-3M melanoma
  TGI: 15.4 µM
UACC-62 melanoma
  TGI: 36.4 µM
SK-MEL-28 melanoma
  TGI: 52.5 µM
HOP-92 NSCLC
  TGI: > 39.7 µM
A549 NSCLC
  TGI: 29.1 µM
MDA-MB-435
  TGI: 33.4 µM
KM12 colon
  TGI: 1.4 µM
MDA-N
  TGI: 29.5 µM
OVCAR-5 ovarian
  TGI: 11.4 µM
HCT-116 colon
  TGI: > 62.1 µM
ACHN renal
  TGI: 24.1 µM
SW-620 colon
  TGI: > 45.4 µM
MCF7 breast
  TGI: 33.6 µM
NCI/ADR-RES ovarian
  TGI: 34.3 µM
OVCAR-4 ovarian
  TGI: 22.9 µM
786-0 renal
  TGI: 3.07 µM
NCI-H460 lung
  TGI: 5.01 µM
